# Test results: patent publication US20040087798A1, “Novel amide compounds” (priority 2000, published 2004)
row,SMILES,melting point [°C]
1,"N=C(Nc1ccc(F)c(NC(=O)/C=C/c2ccccc2Cl)c1)c1ccccc1 [Example 17, (2E)-N-[2-fluoro-5-(iminobenzylamino)phenyl]-3-(2-chlorophenyl)-2-propenamide]",189 to 191
2,"COc1ccccc1/C=C/C(=O)Nc1cccc(NC(=N)c2ccccc2)c1 [Example 14, (2E)-N-[3-(iminobenzylamino)phenyl]-3-(2-methoxyphenyl)-2-propenamide]",219 to 221
3,"N=C(Nc1cc(Cl)cc(NC(=O)/C=C/c2ccccc2C(F)(F)F)c1)c1ccccc1 [Example 35, (2E)-N-[3-chloro-5-(iminobenzylamino)phenyl]-3-[2-(trifluoromethyl)phenyl]-2-propenamide]",137 to 139
4,"Cc1ccc(NC(=O)/C=C/c2ccccc2C(F)(F)F)cc1NC(=N)c1ccccc1 [Example 143, (2E)-N-[3-(iminobenzylamino)-4-methylphenyl]-3-(2-trifluoromethylphenyl)-2-propenamide]",112 to 116
5,"Cc1ccc(/C=C/C(=O)Nc2cccc(NC(=N)c3ccccc3)c2)cc1 [Example 38, (2E)-N-[3 (iminobenzylamino)phenyl]-3-(4-methylphenyl)-2-propenamide]",147 to 149
6,"N=C(Nc1cc(NC(=O)/C=C/c2ccccc2Cl)cc(C(F)(F)F)c1)c1cccs1 [Example 32, (2E)-N-[3-trifluoromethyl-5-[[imino(2-thienyl)methyl]amino]phenyl]-3-(2-chlorophenyl)-2-propenamide]",206 to 208
7,"Cc1ncccc1Oc1ccc(NC(=O)/C=C/c2ccccc2C(F)(F)F)cn1 [Example 9, (2E)-N-[6-(2-methyl-3-pyridyloxy)pyridin-3-yl]-3-[2-(trifluoromethyl)phenyl]-2-propenamide]",214 to 216
8,"N=C(Nc1cc(Cl)cc(NC(=O)/C=C/c2ccccc2Cl)c1)c1cccs1 [Example 33, (2E)-N-[3-chloro-5-[[imino(2-thienyl)methyl]amino]phenyl]-3-(2-chlorophenyl)-2-propenamide]",123 to 124
9,"COc1cccc(/C=C/C(=O)Nc2cccc(NC(=N)c3ccccc3)c2)c1 [Example 48, (2E)-N-[3(iminobenzylamino)phenyl]-3-(3-methoxyphenyl)-2-propenamide]",148 to 149
10,"Cn1c(NCc2cccc(NC(=O)C=Cc3ccccc3Cl)c2)nc2ccccc21 [Example 43, N-[3-[[(1-methyl-1H-benzimidazol-2-yl)amino]methyl]phenyl]-3-(2-chlorophenyl)-2-propenamide]",188 to 191
11,"COc1ccc(Cl)cc1C(=N)Nc1cc(Cl)cc(NC(=O)/C=C/c2ccccc2Cl)c1 [Example 24, (2E)-N-[3-chloro-5-[[(5-chloro-2-methoxyphenyl)(imino)methyl]amino]phenyl]-3-(2-chlorophenyl)-2-propenamide]",226 to 228
12,"N=C(Nc1cc(Cl)cc(NC(=O)/C=C/c2ccccc2C(F)(F)F)c1)c1cccs1 [Example 34, (2E)-N-[3-chloro-5-[[imino(2-thienyl)methyl]amino]phenyl]-3-[2-(trifluoromethyl)phenyl]-2-propenamide]",178 to 179
13,"COc1ccc(F)cc1C(=N)Nc1cc(Cl)cc(NC(=O)/C=C/c2ccccc2C(F)(F)F)c1 [Example 30, (2E)-N-[3-chloro-5-[[(5-fluoro-2-methoxyphenyl)(imino)methyl]amino]phenyl]-3-[2-(trifluoromethyl)phenyl]-2-propenamide]",213 to 214
14,"COc1ccc(NC(=O)/C=C/c2ccccc2C(F)(F)F)cc1NC(=N)c1ccccc1 [Example 144, (2E)-N-[3-(iminobenzylamino)-4-methoxyphenyl]-3-(2-trifluoromethylphenyl)-2-propenamide]",213 to 214
15,"Cc1ccc(NC(=N)c2ccccc2)cc1NC(=O)/C=C/c1ccccc1C(F)(F)F [Example 139, (2E)-N-[5 (iminobenzylamino)-2-methylphenyl]-3-(2-trifluoromethylphenyl)-2-propenamide]",220 to 222
